Data taken from patent publication US5461057A, “Hydro-ethano-indeno-pyridines” (priority 1994, dated 1995).

What was measured:
[1] = system: histamine-induced dyspnea; assay: Bronchodilator (in vivo) Guinea Pig Dyspnea; details: oral; for responders at 50 mg/kg / responders at 100 mg/kg: Cavia porcellus, 1 h, read-out: DYSP survivors (converted)
Description: Unanesthetized guinea pigs (250-350 g), fasted overnight were placed in individual closed aerosol chambers which were connected to a Monoghan Ultrasonic nebulizer. The nebulizer can deliver an ultrasonic fog of uniform particles in a range of 1-8 microns. A 0.1% solution of histamine is aerosolized into the chambers causing the guinea pigs to develop dyspnea. The test drug was given orally one hour before the histamine challenge and the onset of dyspnea was recorded. Saline control animals developed dyspnea within 90-120 seconds of aerosol exposure. […] The data was expressed as the number tested over the number survived. The model was sensitive to bronchodilator and H1 antihistamine activity. Further information relating this test can be obtained from the following two publications which are hereby incorporated by reference: Dungan, K. W. and Lish, P. M. J Allergy 32:139-151 (1961). and Lish, P. M., Robbins, S. I. and Petres E. L. J. Pharmacol. Exp. Therap. 153 L 1538 (1966 ).

[2] = system: muricidal (mouse-killing) behavior; assay: Effects on muricidal behavior in rats; type: in vivo, rat; details: Rattus norvegicus, read-out: MUR ED50
Description: Blockade of muricidal (mouse-killing) behavior in rats is used as a measure of evaluating the anti-depressant activity of drugs, and the procedure for carrying out this test is set forth in Int. J. Neuro-pharmacal., 5, 405-411 (1966) are hereby incorporated by reference, and in PCT/US91/06705, filed 20 Sep. 1991, which is mentioned above.
(§1) The results for this test are given below as ED50 's in the units of mg/kg.
MUR refers to the test on the effects on muricidal behavior in rats;

[3] = system: acetic acid-induced writhing; assay: Acetic Acid Writhing Test in Mice; type: in vivo, mouse; details: Mus musculus, po, read-out: WRITH ED50
Description: The blockade of writhing induced by the intraperitoneal injection of acetic acid is an established experimental animal model for the screening of antinociceptive drugs (drugs which prevent the appreciation or transmission of pain sensations).
The procedure for the Acetic Acid Writhing Test in Mice is set forth in Hendershot et al, J. Pharmacol. Exp. Therap. 125:237, (1959); Koster et al., Fed. Proc. 18:412, (1959); and international application PCT/US91/06705, filed 20 Sep. 1991, which are hereby incorporated by reference.
The results for this test are given below in the units of mg/kg which is also abbreviated in this specification as mpk. The results for this test are given as effective doses (ED50 's).

metrazole = assay: Anti-metrazole test in mice; type: in vivo, mouse; details: Mus musculus, read-out: MTZ ED50
Description: The anti-metrazole test in mice was carried out as described in Everett et al, J. Pharmacol. Exp. Therap. 81:402-407 (1944); which is hereby incorporated by reference.
(§2) The results for this test are given below as ED50's in the units of mg/kg.

[4] = system: LOX human melanoma cell adhesion to human fibronectin; assay: LOX melanoma cell adhesion to fibronectin; type: cell-based; details: Homo sapiens, LOX; for inhibition at 10 µM: read-out: % Inhibition at 10 μM; for inhibition at 50 µM: read-out: % Inhibition at 50 μM; for IC50: Table 4, 1 hour adhesion, read-out: LOX FN IC50
Description: (§3) Adhesion assays were run essentially as described previously (Pai et al., J. Biomed. Res. 2: 53, 1992). 96-well plates were coated with human fibronectin (140 ng/well), human vitronectin (75 ng/well), human collagen I (100 ng/well), human collagen IV (100 ng/well), human fibrinogen (1 μg/well), murine laminin (600 ng/well), or polylysine, and incubated overnight in a humidified 37° C. incubator. Excess fibronectin or other substrate was then removed and 0.2 ml of 2 mg/ml bovine serum albumin (BSA)in Dulbecco's phosphate-buffered saline (DPBS) was added to each well, incubated for 2 hours at 37° C., and removed. LOX human melanoma cells, M27 murine lung carcinoma cells or B16F10 mouse melanoma cells were detached from tissue culture flasks with RPMI medium containing 0.2M urea and 10 mM EDTA, and 0.18 ml of cells were added to each well to a final cell concentration of 1×10^5 cells/well. For inhibition studies 20 μl of 10× compound was added to the wells prior to cell addition. Cells were allowed to adhere for 1 hour at 37° C. The wells were then gently washed twice with 0.2 ml DPBS. The fluorescent dye calcein AM (Molecular Probes, Eugene Oreg.) in DPBS (0.1 ml of 1 μM) was added to each well, and the plates were incubated for 1 hour at room temperature. Adherent cells were quantitated by reading the fluorescence on a Cytofluor 2300 fluorescent plate reader (Millipore) at 485 nm excitation and 530 nm emission.
LOX FN-IC50 value for inhibition of adhesion of LOX human melanoma cells to fibronectin coated on a plastic surface.

methamphetamine toxicity = assay: Methamphetamine toxicity test in mice; type: in vivo; details: Mus musculus, read-out: METHA ED50
Description: The methamphetamine toxicity test in mice was carried out as described in Burn et al, Arch. Int. Pharmacodyn 113:290-295, (1958); and Coscia et al, Arzneim-Forsch (Drug Research) 25:1436-1442, (1975); which are hereby incorporated by reference.
as §2
METHA refers to the methamphetamine toxicity test in mice;

pulmonary resistance = assay: Pulmonary Resistance in the Anesthetized Rat; type: in vivo; details: 0.5 mpk, i.v., mean of 5 animals, % decrease in pre-drug baseline resistance; for inhibition in vivo at 0.5 mg/kg: Rattus norvegicus, iv, read-out: Pulmonary Resistance in Rats, % Inhibition
Description: Rats (400-500 g) anesthetized with dialurethane were surgically prepared with tracheal and esophageal catheters. These catheters were connected to pressure transducers for recording of air flow, tracheal and esophageal pressures. These pressures formed the basis for measurement of pulmonary resistance. Inhibition of pulmonary resistance is a reflection of bronchodilation.
All compounds were tested i. v. in 5 separate animals. All data are expressed in % decrease in the pre-drug baseline resistance and each number given is the mean of the 5 animals tested.
The model is sensitive to bronchodilator activity.
Further information relating this test can be obtained from the following publications which are hereby incorporated by reference: Comroe et al, J. Appl. Physio. 4:439-44 (1959); Dungan et al J. Pharmacol. Exp. Therap. 164:290-301(1968); and Mead, J. et al. J. Appl. Physio. 5:779-796 (1953).

TBZ-induced ptosis = assay: Effects on tetrabenazine (TBZ)-induced ptosis in mice; type: in vivo, mouse; details: Mus musculus, po
Description: Clinically active antidepressant drugs are known to block TBZ-induced ptosis in mice (See Psychosomatic Medicine, Nodine and Moyer, Eds. Lea and Febiger, Philadelphia, 1962, pp 683-90, which is hereby incorporated by reference). Activity in this test is used to predict anti-depressant activity in man.
The procedure for the TBZ-Induced Ptosis Test in Mice is set forth in Psychosomatic Medicine, Nodine and Moyer, Eds. Lea and Febiger, which is hereby incorporated by reference and in PCT/US91/06705, filed 20 Sep. 1991, which is mentioned above.
as §1
TBZ refers to the test of effects on tetrabenazine induced ptosis in mice, p.o.;

[5] = Calcein cytotoxicity assay; type: cell-based; details: human, lox melanoma cells; 2 hours, calcein AM assay; read-out: 2 Hr Tox LD50
Description: LOX human melanoma cells were detached from tissue culture flasks with RPMI medium containing 0.2M urea and 10 mM EDTA, and 0.18 ml of cells were added to each well to a final cell concentration of 5×10^4 cells/well. 20 μl of 10× compound was added to the wells prior to cell addition. Cells were incubated with the compound at 37° C. for 1 hour or 5 hour as indicated. Calcein AM in DPBS (0.02 ml of 5 μM) was added to each well, and the plates were incubated for an additional 1 hour at room temperature. Viable cells were quantitated by reading the fluorescence on a Cytofluor 2300 fluorescent plate reader at 485 nm excitation and 530 nm emission.

[6] = system: LOX human melanoma cell adhesion to polylysine; assay: LOX melanoma cell adhesion to polylysine; type: cell-based; details: read-out: Poly Lys IC50
Description: as §3

[7] = 50 mg/kg, one hour before histamine challenge
[8] = 100 mg/kg, one hour before histamine challenge

SMILES | responders at 50 mg/kg [1, 7] [%] | ED50 [2] [mg/kg] | ED50 [3] [mg/kg] | ED50 (metrazole) [mg/kg] | inhibition at 10 µM [4] [%] | inhibition at 50 µM [4] [%] | ED50 (methamphetamine toxicity) [mg/kg] | inhibition in vivo at 0.5 mg/kg (pulmonary resistance) [%] | ED50 (TBZ-induced ptosis) [mg/kg] | DYSP survivors [1, 8] | Pulmonary Resistance in Rats, % Inhibition (pulmonary resistance) [%] | CC50 at 2 h [5] [µM] | IC50 [6] [µM] | IC50 [4] [µM] | responders at 100 mg/kg [1, 8] [%] | DYSP survivors ([1]; 10 mg/kg, one hour before histamine challenge) | DYSP survivors ([1]; 20 mg/kg, one hour before histamine challenge) | DYSP survivors [1, 7] | DYSP survivors ([1]; dose not given)
CN1C2CCC1C1c3ccccc3C(O)(c3ccccc3)C1C2 (stereo not drawn) [AAA] | 0 | > 10 | > 30 | > 30 | 5.2 | 5.8 | > 30 | 35 | > 30 |  |  |  |  |  |  |  |  |  | 
COc1ccc(C2C3=C(c4ccccc42)C2CCC(C3)N2C)cc1OC (stereo not drawn) [AA] |  | > 10 | 22.8 | > 30 | -30 | 23.6 | > 30 |  | > 30 | 0/3 | 6 |  |  |  |  |  |  |  | 
COc1ccc(C2C3=C(c4ccccc42)C2CCC(C3)N2)cc1 (stereo not drawn) [Compound X] |  | > 30 | > 30 |  | 20.8 | 99.7 | > 60 |  | 17.3 |  |  | 67.7 | 121 | 15 |  |  |  |  | 
CN1C2CCC1C1c3ccccc3C(c3ccccc3)C1C2 (stereo not drawn) [MM] | 0 | > 10 |  |  | -1.8 | 25.8 |  | 9 | 9.3 |  |  |  |  |  | 66.7 |  |  |  | 
c1ccc(C2=C3CC4CCC(N4)C3c3ccccc32)cc1 (stereo not drawn) [Q] |  | > 10 | > 30 | > 30 | 0.1 | 97.1 |  |  | 3.6 | 0/3 | 24 | 66.7 | 83.6 | 19.1 |  |  |  |  | 
CN1C2CCC1C1c3ccccc3C(O)(c3ccc(F)cc3)C1C2 (stereo not drawn) [SS] | 33.3 | > 10 | > 30 | > 30 | 10.1 | 17.3 | > 30 | 22 | > 30 |  |  | > 250 | > 250 | > 50 | 100 |  |  |  | 
CN1C2CCC1C1=C(C2)C(c2ccc(F)cc2)c2ccccc21 (stereo not drawn) [W] |  |  | 10.7 | > 30 | 36.3 | 100 | 8.9 |  | > 30 | 3/3 | 21 | 103 | 78.3 | 17.4 |  | 1/3 | 2/3 | 2/3 | 
COc1ccc(C2C3=C(c4ccccc42)C2CCC(C3)N2C)cc1 (stereo not drawn) [Y] |  | > 20 |  |  | -1.2 | 98.2 | > 30 |  | 0.35 |  |  | 63.6 | 105 | 21.6 |  |  |  |  | 2/3
